Source: paper PMC6267684, “Pharmacokinetic evaluation of the PNC disassembler metarrestin in wild-type and Pdx1-Cre;LSL-Kras^G12D/+;Tp53^R172H/+ (KPC) mice, a genetically engineered model of pancreatic cancer” (Cancer Chemotherapy and Pharmacology, 2018)
Values joined by “and” are separate entries in the source; they are usually repeats but may differ in a detail not shown here. Equal entries are not always repeated. Where two headings read alike, the source gives them in different places.

Assay: Pharmacokinetics in tumor-bearing KPC mice after 25 mg/kg single or multiple dose oral gavage
Type: in vivo
Conditions: for AUC(0-t): po; for Kp: read-out: AUC0–24h ratio (tissue/plasma)
From the text: Animals with three or more tumors per organ, pancreatic cysts or cystic tumors, signs of intestinal, pancreatic or gall bladder duct occlusions, or otherwise moribund/showing signs of dilapidation were excluded. Mice were randomized into treatment groups using their tumor volume and location inside pancreas, animal age, gender, and weight by an unbiased covariate randomization.
For pharmacokinetic studies, metarrestin solutions prepared in 30% PEG-400 and 70% (20% w:v HP-β-CD in water) solution were administered to C57BL/6 mice at 3 mg/kg IV via tail vein injection, or 3 and 10 mg/kg orally via gavage. KPC mice were additionally treated with 25 mg/kg PO via gavage. The dosing volume was 3 mL/kg for IV route and 10 mL/kg for PO route. Dosing solutions were prepared on the day of administration. Blood samples were collected at 10, 20 min, 1, 2, 4, 7 and 24 h after 3 mg/kg IV administration. After oral administration of 3 and 10 mg/kg in C57BL6 mice, blood and liver samples were collected at 10 min, 0.5, 1, 2, 3, 5, 7, 9 and 24 h post dosing (n = 3 per time point). In KPC mice, blood, pancreatic tumor, spleen and liver samples were collected at 1, 2, 3, 6, 9, 12 and 24 h after 25 mg/kg PO administration.
For the assessment of multiple dose (MD) pharmacokinetics, KPC mice were treated with daily PO administration of 25 mg/kg metarrestin for 14 days. Plasma (100–300 µL), pancreatic tumors, spleen and liver samples were collected at 0, 3, 6, 9, 12, 15, 24 and 48 h after last dose from three mice at each time point. Daily dosing was carried for 14 days, with the last dose administered at 9:00 a.m. on Day 14. To assess the steady-state concentration of metarrestin in KPC mice, animals were treated with drug-formulated chow for 14 days. To control for daily cycle changes in feeding behavior, 9:00 a.m. on day 0 was designated as the study start time, and 9:00 a.m. on Day 14 was designated as the 0 h time point for sample collection. Blood, pancreatic tumor, spleen and liver tissue were collected at 0, 3, 6, 9, 12, 15, and 24 h from three mice at each time point while the animals were continuously fed with metarrestin-formulated chow on Day 14. Additional controls included mice with a matched drug-free diet, with blood and tissue samples collected at the initial (t = 0) and two intermediate (t = 9 h, t = 24 h) time points.
Blood samples were collected in K2EDTA tubes and plasma was harvested after centrifugation at 3000 rpm for 10 min. Tissue samples were weighed and flash-frozen for PK and PD mRNA expression analyses, embedded into OCT blocks for PNC determination and processed into FFPE blocks for histopathology assessment. All PK samples were stored at − 80 °C until analysis.
An ultra-performance liquid chromatography–tandem mass spectrometry (UPLC–MS/MS) method was developed to determine metarrestin concentrations in plasma and tissue samples. Mass spectrometric analysis was performed on a Waters Xevo TQ-S triple quadrupole instrument using electrospray ionization in positive mode. The separation was performed on an Acquity BEH C18 column (50 × 2.1 mm, 1.7 µ) using a Waters Acquity UPLC system with 0.6 mL/min flow rate and gradient elution. Mobile phase A was 0.1% formic acid in water, and B was 0.1% formic acid in acetonitrile (ACN). The column temperature was maintained at 60 °C. The calibration standards and quality control (QC) samples were prepared in the control blank mouse plasma and tissue homogenate. Tissues were homogenized with 3 or 6 volumes (v/w) of deionized water on the day of analysis. Proteins were precipitated from 10 µL plasma or 5 µL tissue homogenate with 200 µL ACN containing 100 ng/mL Tolbutamide as internal standard in 96-well plates. The mixture was vortexed for 2 min and centrifuged at 4000 rpm for 30 min at 4 °C. An aliquot of 150 µL supernatant was transferred to a 350-µL 96-well plate. 0.2 µL supernatant was injected for the UPLC–MS/MS analysis. Data were analyzed using MassLynx V4.1. […]

[1] = KPC, mouse, pancreatic tumor, tumor, day 14, multiple PO doses 25 mg/kg/day
[2] = KPC, mouse, pancreatic tumor, tumor, single PO dose 25 mg/kg
[3] = KPC, mouse, liver, day 14, multiple PO doses 25 mg/kg/day
[4] = KPC, mouse, liver, single PO dose 25 mg/kg
[5] = KPC, mouse, plasma, day 14, multiple PO doses 25 mg/kg/day
[6] = KPC, mouse, plasma, single PO dose 25 mg/kg
[7] = KPC, mouse, spleen, day 14, multiple PO doses 25 mg/kg/day
[8] = KPC, mouse, spleen, single PO dose 25 mg/kg

N=c1c2c(-c3ccccc3)c(-c3ccccc3)n(Cc3ccccc3)c2ncn1[C@H]1CC[C@H](O)CC1 [metarrestin, Trans-4-(7-benzyl-4-imino-5,6-diphenyl-4,7-dihydro-3H-pyrrolo[2,3-d]pyrimidin-3-yl) cyclohexanol]
intratumor AUC0–24h (25 mg/kg PO gavage MD): 1,150,000 h ng/mL
AUC(0-t) (KPC, mouse, liver, 25 mg/kg, liver, single PO dose 25 mg/kg, read-out: AUC0–24h): 536 µg·h/mL
AUC(0-t) (KPC, mouse, liver, 25 mg/kg/day, liver, day 14, multiple PO doses 25 mg/kg/day, read-out: AUC0–24h): 987 µg·h/mL
AUC(0-t) (KPC, mouse, liver, 25 mg/kg/day, liver, day 14, multiple PO doses 25 mg/kg/day, read-out: AUC0–48h): 1290 µg·h/mL
Kp (KPC, mouse, pancreatic tumor / plasma, tumor/plasma, day 14, multiple PO doses 25 mg/kg/day): 37
Kp (KPC, mouse, pancreatic tumor / plasma, tumor/plasma, single PO dose 25 mg/kg): 19
AUC(0-t) (KPC, mouse, pancreatic tumor, 25 mg/kg, tumor, single PO dose 25 mg/kg, read-out: AUC0–24h): 232 µg·h/mL
AUC(0-t) (KPC, mouse, pancreatic tumor, 25 mg/kg/day, tumor, day 14, multiple PO doses 25 mg/kg/day, read-out: AUC0–24h): 1150 µg·h/mL
AUC(0-t) (KPC, mouse, pancreatic tumor, 25 mg/kg/day, tumor, day 14, multiple PO doses 25 mg/kg/day, read-out: AUC0–48h): 1810 µg·h/mL
concentration at 24 h (KPC, mouse, pancreatic tumor, 24 h after single dose 25 mg/kg PO, read-out: intratumor concentration (mean)): 6200 ng/g and 13 µM
AUC(0-inf) [1]: 2090 µg·h/mL
Cmax [1]: 65000 ng/mL
Tmax [1]: 6 h
half-life [1]: 18 h
Cmax [2]: 14000 ng/mL
Tmax [2]: 6 h
AUC(0-t) (KPC, mouse, plasma, 25 mg/kg, plasma, single PO dose 25 mg/kg, read-out: AUC0–24h): 12.1 µg·h/mL
AUC(0-t) (KPC, mouse, plasma, 25 mg/kg/day, plasma, day 14, multiple PO doses 25 mg/kg/day, read-out: AUC0–24h): 31.5 µg·h/mL
AUC(0-t) (KPC, mouse, plasma, 25 mg/kg/day, plasma, day 14, multiple PO doses 25 mg/kg/day, read-out: AUC0–48h): 38.4 µg·h/mL
AUC(0-t) (KPC, mouse, spleen, 25 mg/kg, spleen, single PO dose 25 mg/kg, read-out: AUC0–24h): 396 µg·h/mL
AUC(0-t) (KPC, mouse, spleen, 25 mg/kg/day, spleen, day 14, multiple PO doses 25 mg/kg/day, read-out: AUC0–24h): 959 µg·h/mL
AUC(0-t) (KPC, mouse, spleen, 25 mg/kg/day, spleen, day 14, multiple PO doses 25 mg/kg/day, read-out: AUC0–48h): 1220 µg·h/mL
Kp (KPC, mouse, liver/plasma, day 14, multiple PO doses 25 mg/kg/day): 31
Kp (KPC, mouse, liver/plasma, single PO dose 25 mg/kg): 44
AUC(0-inf) [3]: 1350 µg·h/mL
Cmax [3]: 59500 ng/mL
Tmax [3]: 6 h
half-life [3]: 9.6 h
AUC(0-inf) [4]: 653 µg·h/mL
Cmax [4]: 34200 ng/mL
Tmax [4]: 6 h
half-life [4]: 9 h
AUC(0-inf) [5]: 39.3 µg·h/mL
Cmax [5]: 2000 ng/mL
Tmax [5]: 3 h
half-life [5]: 8.2 h
AUC(0-inf) [6]: 14.4 µg·h/mL
Cmax [6]: 810 ng/mL
Tmax [6]: 6 h
half-life [6]: 8.5 h
Kp (KPC, mouse, spleen/plasma, day 14, multiple PO doses 25 mg/kg/day): 30
Kp (KPC, mouse, spleen/plasma, single PO dose 25 mg/kg): 33
AUC(0-inf) [7]: 1250 µg·h/mL
Cmax [7]: 62400 ng/mL
Tmax [7]: 6 h
half-life [7]: 8.2 h
AUC(0-inf) [8]: 495 µg·h/mL
Cmax [8]: 25000 ng/mL
Tmax [8]: 6 h
half-life [8]: 9.7 h
AUC0–24h (liver, MD 25 mg/kg/day PO): 987,000 ng h/g
AUC0–24h (liver, SD 25 mg/kg PO): 536,000 ng h/g
AUC0–24h (tumor, MD 25 mg/kg/day PO): 1,150,000 ng h/g
AUC0–24h (tumor, SD 25 mg/kg PO): 232,000 ng h/g
